Experimental data as given in ChEMBL document CHEMBL5291721, “A preclinical secondary pharmacology resource illuminates target-adverse drug reaction associations of marketed drugs” (Nat Commun, 2023).

Assays:
[1] = target: Muscarinic acetylcholine receptor M3 (Homo sapiens, UniProt P20309)
[2] = target: T1, 5-hydroxytryptamine receptor 1A (Homo sapiens, UniProt P08908); type: functional, cell-based
T1 sequence (P08908 whole entry): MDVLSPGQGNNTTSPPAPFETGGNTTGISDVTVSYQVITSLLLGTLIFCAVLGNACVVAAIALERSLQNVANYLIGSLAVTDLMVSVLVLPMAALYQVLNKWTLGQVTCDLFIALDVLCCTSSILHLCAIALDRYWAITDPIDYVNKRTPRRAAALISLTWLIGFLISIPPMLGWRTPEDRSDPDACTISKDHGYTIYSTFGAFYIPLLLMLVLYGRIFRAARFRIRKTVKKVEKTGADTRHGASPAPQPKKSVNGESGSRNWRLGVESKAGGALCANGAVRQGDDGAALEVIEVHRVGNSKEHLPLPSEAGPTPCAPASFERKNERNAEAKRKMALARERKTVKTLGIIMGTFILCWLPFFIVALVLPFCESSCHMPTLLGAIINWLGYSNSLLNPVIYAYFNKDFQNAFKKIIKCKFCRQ

[3] = target: T2, 5-hydroxytryptamine receptor 2B (Homo sapiens, UniProt P41595); type: functional, cell-based
T2 sequence (P41595 whole entry): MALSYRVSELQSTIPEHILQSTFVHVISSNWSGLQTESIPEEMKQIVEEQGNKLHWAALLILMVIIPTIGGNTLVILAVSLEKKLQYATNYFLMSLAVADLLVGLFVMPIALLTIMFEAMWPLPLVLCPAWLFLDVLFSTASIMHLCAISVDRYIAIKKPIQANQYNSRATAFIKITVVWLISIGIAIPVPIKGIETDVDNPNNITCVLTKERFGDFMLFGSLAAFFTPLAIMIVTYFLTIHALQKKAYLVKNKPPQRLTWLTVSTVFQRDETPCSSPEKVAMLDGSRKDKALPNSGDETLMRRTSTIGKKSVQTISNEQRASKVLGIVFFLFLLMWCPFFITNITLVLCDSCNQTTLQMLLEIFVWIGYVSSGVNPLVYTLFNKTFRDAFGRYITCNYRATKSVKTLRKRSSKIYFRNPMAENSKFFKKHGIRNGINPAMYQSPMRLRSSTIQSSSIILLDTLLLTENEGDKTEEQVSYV

[4] = target: Glutamate receptor ionotropic, NMDA 1 (Rattus norvegicus, UniProt P35439)
Histamine H3 receptor = Histamine H3 receptor (Homo sapiens, UniProt Q9Y5N1)
Histamine H3 receptor, sequence (Q9Y5N1 whole entry): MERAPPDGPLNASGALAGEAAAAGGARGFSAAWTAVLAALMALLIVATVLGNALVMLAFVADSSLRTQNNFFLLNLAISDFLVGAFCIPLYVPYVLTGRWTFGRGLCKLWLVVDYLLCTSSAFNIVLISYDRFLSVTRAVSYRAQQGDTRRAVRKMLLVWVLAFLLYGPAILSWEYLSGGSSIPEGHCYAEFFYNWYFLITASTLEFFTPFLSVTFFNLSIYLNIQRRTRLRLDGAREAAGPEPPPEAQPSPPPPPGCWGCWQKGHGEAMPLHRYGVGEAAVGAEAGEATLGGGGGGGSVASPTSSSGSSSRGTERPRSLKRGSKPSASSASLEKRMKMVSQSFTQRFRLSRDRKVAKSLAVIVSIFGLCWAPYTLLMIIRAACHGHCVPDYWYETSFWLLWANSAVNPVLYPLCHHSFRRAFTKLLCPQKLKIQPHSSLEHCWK

Progesterone receptor = target: T3, Progesterone receptor (Homo sapiens, UniProt P06401); type: functional
T3 sequence (P06401 whole entry): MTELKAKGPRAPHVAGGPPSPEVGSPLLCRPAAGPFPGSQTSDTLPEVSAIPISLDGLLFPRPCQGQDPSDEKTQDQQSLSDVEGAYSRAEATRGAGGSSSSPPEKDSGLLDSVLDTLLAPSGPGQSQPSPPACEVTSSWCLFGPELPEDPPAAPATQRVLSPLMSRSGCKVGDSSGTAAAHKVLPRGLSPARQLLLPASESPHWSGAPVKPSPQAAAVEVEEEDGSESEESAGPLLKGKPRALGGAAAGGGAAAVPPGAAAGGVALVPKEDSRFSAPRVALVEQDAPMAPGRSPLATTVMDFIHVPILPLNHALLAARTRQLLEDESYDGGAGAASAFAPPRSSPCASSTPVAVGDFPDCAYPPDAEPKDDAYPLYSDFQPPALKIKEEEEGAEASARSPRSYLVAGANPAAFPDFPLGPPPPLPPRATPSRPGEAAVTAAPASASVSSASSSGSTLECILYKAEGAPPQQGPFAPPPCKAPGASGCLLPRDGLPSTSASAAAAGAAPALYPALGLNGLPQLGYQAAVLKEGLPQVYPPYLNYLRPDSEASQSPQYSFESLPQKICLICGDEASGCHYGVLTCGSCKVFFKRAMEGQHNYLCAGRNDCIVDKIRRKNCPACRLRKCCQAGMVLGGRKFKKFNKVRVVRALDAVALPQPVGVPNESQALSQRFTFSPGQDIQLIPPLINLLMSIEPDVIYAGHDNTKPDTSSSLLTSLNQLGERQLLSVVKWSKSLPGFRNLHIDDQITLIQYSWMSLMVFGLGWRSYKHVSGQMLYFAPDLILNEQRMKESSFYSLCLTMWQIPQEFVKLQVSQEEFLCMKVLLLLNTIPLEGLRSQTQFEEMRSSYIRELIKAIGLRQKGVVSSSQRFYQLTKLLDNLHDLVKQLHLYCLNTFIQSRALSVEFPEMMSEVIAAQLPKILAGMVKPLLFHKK

[5] = target: T4, Alpha-1A adrenergic receptor (Homo sapiens, UniProt P35348)
T4 sequence (P35348 whole entry): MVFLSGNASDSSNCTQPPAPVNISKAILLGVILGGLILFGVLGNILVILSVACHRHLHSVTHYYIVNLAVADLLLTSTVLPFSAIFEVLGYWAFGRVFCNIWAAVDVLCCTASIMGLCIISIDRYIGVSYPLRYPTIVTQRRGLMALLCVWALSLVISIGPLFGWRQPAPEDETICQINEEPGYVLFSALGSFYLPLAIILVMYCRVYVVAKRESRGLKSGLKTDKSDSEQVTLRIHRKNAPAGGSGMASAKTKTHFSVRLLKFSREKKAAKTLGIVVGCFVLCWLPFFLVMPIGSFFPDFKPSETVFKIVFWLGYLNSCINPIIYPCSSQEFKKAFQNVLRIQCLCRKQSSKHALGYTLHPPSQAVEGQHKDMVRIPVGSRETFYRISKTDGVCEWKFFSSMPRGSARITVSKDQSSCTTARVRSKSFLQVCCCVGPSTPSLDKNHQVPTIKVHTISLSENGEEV

[6] = target: T1, 5-hydroxytryptamine receptor 1A
[7] = target: Sodium-dependent dopamine transporter (Homo sapiens, UniProt Q01959)
Sodium-dependent dopamine transporter, sequence (Q01959 whole entry): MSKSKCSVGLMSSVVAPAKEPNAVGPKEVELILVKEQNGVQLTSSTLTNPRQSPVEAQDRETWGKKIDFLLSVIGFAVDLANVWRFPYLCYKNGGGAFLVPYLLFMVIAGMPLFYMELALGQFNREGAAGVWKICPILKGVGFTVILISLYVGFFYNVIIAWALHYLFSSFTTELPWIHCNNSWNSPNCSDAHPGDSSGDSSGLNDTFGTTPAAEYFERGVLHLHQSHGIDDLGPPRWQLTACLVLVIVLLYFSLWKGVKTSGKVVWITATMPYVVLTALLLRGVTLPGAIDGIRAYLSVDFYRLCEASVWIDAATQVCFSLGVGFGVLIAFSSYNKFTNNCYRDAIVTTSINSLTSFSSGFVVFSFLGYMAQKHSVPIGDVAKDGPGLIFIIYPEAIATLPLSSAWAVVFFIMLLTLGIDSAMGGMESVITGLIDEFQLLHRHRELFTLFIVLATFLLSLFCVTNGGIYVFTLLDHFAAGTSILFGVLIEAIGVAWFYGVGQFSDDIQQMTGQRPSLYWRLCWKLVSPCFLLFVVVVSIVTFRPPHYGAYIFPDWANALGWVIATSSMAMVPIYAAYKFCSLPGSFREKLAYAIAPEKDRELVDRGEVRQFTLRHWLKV

[8] = target: T2, 5-hydroxytryptamine receptor 2B; type: functional, cell-based; remark: listed apart in the source
D(1A) dopamine receptor = D(1A) dopamine receptor (Homo sapiens, UniProt P21728)
D(1A) dopamine receptor, sequence (P21728 whole entry): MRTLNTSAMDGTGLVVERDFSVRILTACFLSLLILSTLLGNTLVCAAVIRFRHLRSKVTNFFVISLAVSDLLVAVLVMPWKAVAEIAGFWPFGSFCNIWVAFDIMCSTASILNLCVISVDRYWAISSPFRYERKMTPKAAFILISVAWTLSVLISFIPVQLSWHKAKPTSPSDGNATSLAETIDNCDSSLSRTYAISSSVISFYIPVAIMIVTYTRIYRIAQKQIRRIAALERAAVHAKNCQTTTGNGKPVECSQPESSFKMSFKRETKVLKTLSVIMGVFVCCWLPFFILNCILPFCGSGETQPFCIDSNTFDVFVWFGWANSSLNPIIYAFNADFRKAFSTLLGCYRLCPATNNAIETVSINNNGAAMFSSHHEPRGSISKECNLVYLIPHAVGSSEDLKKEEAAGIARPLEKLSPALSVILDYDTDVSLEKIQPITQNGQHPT

[9] = target: T4, Alpha-1A adrenergic receptor; type: functional, cell-based
[10] = target: Sodium-dependent noradrenaline transporter (Homo sapiens, UniProt P23975)
Sodium-dependent noradrenaline transporter, sequence (P23975 whole entry): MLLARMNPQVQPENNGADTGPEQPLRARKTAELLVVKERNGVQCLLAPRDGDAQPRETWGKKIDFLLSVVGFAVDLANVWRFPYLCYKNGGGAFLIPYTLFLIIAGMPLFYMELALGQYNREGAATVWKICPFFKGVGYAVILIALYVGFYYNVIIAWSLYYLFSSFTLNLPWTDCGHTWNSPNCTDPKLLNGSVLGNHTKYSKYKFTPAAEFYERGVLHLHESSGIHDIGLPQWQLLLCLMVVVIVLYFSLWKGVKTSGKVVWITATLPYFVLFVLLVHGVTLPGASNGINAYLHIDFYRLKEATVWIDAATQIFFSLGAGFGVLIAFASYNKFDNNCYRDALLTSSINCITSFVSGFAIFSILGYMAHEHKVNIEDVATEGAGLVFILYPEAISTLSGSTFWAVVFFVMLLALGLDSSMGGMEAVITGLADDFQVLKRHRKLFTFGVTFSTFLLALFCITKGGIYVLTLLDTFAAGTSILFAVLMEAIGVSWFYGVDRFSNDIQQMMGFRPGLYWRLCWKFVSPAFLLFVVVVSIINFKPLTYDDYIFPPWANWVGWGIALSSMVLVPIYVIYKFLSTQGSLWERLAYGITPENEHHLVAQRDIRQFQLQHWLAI
Note: assay procedure not described here.

Muscarinic acetylcholine receptor M3, sequence (P20309 whole entry): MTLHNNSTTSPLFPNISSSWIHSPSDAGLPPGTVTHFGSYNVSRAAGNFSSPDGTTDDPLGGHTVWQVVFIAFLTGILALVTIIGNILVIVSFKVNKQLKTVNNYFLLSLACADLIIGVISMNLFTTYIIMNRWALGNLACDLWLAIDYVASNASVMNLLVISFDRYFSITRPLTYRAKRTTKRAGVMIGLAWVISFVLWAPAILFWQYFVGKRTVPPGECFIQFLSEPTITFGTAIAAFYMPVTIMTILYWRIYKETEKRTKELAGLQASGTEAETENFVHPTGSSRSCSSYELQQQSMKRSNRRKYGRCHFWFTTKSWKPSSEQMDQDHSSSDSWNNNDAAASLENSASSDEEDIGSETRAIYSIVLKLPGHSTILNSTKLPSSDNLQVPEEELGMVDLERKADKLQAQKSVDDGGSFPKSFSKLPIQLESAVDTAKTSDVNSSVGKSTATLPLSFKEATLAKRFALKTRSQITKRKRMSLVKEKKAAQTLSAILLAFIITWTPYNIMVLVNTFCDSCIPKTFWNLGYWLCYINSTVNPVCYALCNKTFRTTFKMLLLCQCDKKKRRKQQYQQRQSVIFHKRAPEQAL

Row | SMILES | AC50 [1] | AC50 [2] | AC50 [3] | AC50 [4] | AC50 (Histamine H3 receptor) | AC50 [5] | AC50 (Progesterone receptor) | AC50 [6] | AC50 [7] | AC50 [8] | AC50 (D(1A) dopamine receptor) | AC50 [9] | AC50 [10]
1 | Cc1c(C(=O)NN2CCCCC2)nn(-c2ccc(Cl)cc2Cl)c1-c1ccc(Cl)cc1 [RIMONABANT] | > 30 µM | > 30 µM | 14 µM | > 10 µM | > 30 µM | > 10 µM | > 30 µM |  |  |  |  |  | 
2 | Clc1ccc2nsnc2c1NC1=NCCN1 [TIZANIDINE] | > 10 µM | > 10 µM | > 30 µM | > 10 µM | > 10 µM | 3.9 µM |  |  |  |  |  |  | 
3 | CCOC(=O)[C@H](CCc1ccccc1)N[C@@H](C)C(=O)N1[C@H](C(=O)O)C[C@@H]2CCC[C@@H]21 |  | > 10 µM | > 10 µM | > 10 µM | > 10 µM | > 10 µM |  |  |  |  |  |  | 
4 | C[C@@H](O)[C@H]1C(=O)N2C(C(=O)O)=C(S[C@@H]3CN[C@H](C(=O)N(C)C)C3)[C@H](C)[C@H]12 [MEROPENEM] |  | > 300 µM | > 300 µM | > 10 µM | > 300 µM | > 10 µM | > 300 µM |  |  |  |  |  | 
5 | CN(C)/N=N/c1[nH]cnc1C(N)=O [DACARBAZINE] |  | > 10 µM | > 10 µM | > 10 µM |  | > 10 µM | > 10 µM |  |  |  |  |  | 
6 | Cn1nnc2c(C(N)=O)ncn2c1=O [TEMOZOLOMIDE] | > 30 µM | > 30 µM | > 30 µM | > 10 µM | > 30 µM | > 10 µM | > 30 µM |  |  |  |  |  | 
7 | C[C@]12CCC(=O)C=C1CC[C@@H]1[C@@H]2[C@@H](O)C[C@@]2(C)[C@H]1CC[C@]2(O)C(=O)CO [HYDROCORTISONE] |  | > 10 µM | > 10 µM | > 10 µM | > 10 µM | > 10 µM |  |  |  |  |  |  | 
8 | CN1C(=O)CCS(=O)(=O)C1c1ccc(Cl)cc1 (stereo unspecified) [CHLORMEZANONE] | > 30 µM | > 10 µM | > 10 µM | > 10 µM |  | > 30 µM | > 10 µM |  |  |  |  |  | 
9 | O=C1Nc2ccc(Cl)cc2[C@@](C#CC2CC2)(C(F)(F)F)O1 [EFAVIRENZ] | > 30 µM | > 10 µM | > 10 µM | > 10 µM | > 30 µM | > 10 µM | > 30 µM |  |  |  |  |  | 
10 | Nc1ccn([C@H]2CC[C@@H](CO)O2)c(=O)n1 [ZALCITABINE] | > 30 µM | > 10 µM | > 10 µM | > 10 µM |  | > 10 µM |  |  |  |  |  |  | 
11 | c1ccc([C@H]2CN3CCSC3=N2)cc1 [LEVAMISOLE] |  | > 30 µM | > 30 µM | > 30 µM | > 30 µM | > 10 µM | > 30 µM |  |  |  |  |  | 
12 | CCCSc1ccc2nc(NC(=O)OC)[nH]c2c1 [ALBENDAZOLE] |  | > 10 µM | > 10 µM | > 10 µM |  | > 10 µM | > 10 µM |  |  |  |  |  | 
13 | CC1(C)NC(=O)N(c2ccc([N+](=O)[O-])c(C(F)(F)F)c2)C1=O [NILUTAMIDE] | > 30 µM | > 30 µM | > 30 µM | > 30 µM | > 30 µM | > 30 µM | > 30 µM | > 30 µM | > 30 µM | > 30 µM | > 30 µM | > 30 µM | > 30 µM
14 | CC[C@H]1OC(=O)[C@H](C)[C@@H](O[C@H]2C[C@@](C)(OC)[C@@H](O)[C@H](C)O2)[C@H](C)[C@@H](O[C@@H]2O[C@H](C)C[C@H](N(C)C)[C@H]2O)[C@](C)(O)C[C@@H](C)CN(C)[C@H](C)[C@@H](O)[C@]1(C)O [AZITHROMYCIN] |  | > 10 µM | > 10 µM | > 10 µM | > 10 µM | > 10 µM |  | > 30 µM | > 30 µM | > 30 µM | > 30 µM | > 30 µM | > 30 µM
15 | O=P1(NCCCl)OCCCN1CCCl (stereo unspecified) [IFOSFAMIDE] |  | > 30 µM | > 30 µM | > 30 µM | > 30 µM | > 30 µM | > 30 µM |  |  |  |  |  | 

The next lines start with results.

Row | AC50 [1] | AC50 [2] | AC50 [3] | AC50 [4] | AC50 (Histamine H3 receptor) | AC50 [5] | SMILES | AC50 (Progesterone receptor) | AC50 [6] | AC50 [7] | AC50 [8] | AC50 (D(1A) dopamine receptor) | AC50 [9] | AC50 [10]
16 | > 30 µM |  | 11 µM | > 30 µM | > 30 µM | 13 µM | COc1ccccc1OCC(O)CN1CCN(CC(=O)Nc2c(C)cccc2C)CC1 (stereo unspecified) [RANOLAZINE] | > 30 µM |  |  |  |  |  | 
17 |  | > 10 µM | > 10 µM | > 10 µM |  | > 10 µM | Clc1ccc(C(c2ccccc2Cl)C(Cl)Cl)cc1 (stereo unspecified) [MITOTANE] | 0.45 µM |  |  |  |  |  | 
18 | > 30 µM | > 30 µM | > 30 µM |  | > 30 µM | > 10 µM | CNC(=O)c1ccccc1Sc1ccc2c(/C=C/c3ccccn3)n[nH]c2c1 [AXITINIB] | > 30 µM |  |  |  |  |  | 
19 | > 30 µM | > 10 µM | > 10 µM | > 10 µM | > 10 µM | > 10 µM | NS(=O)(=O)Cc1noc2ccccc12 [ZONISAMIDE] | > 10 µM |  |  |  |  |  | 
20 | > 30 µM | > 10 µM | > 10 µM | > 10 µM | > 10 µM | > 10 µM | CN1C(C(=O)Nc2ccccn2)=C(O)c2sc(Cl)cc2S1(=O)=O [LORNOXICAM] |  |  |  |  |  |  | 
21 |  | > 30 µM | > 30 µM | > 30 µM | > 30 µM | > 10 µM | CCC(C)n1ncn(-c2ccc(N3CCN(c4ccc(OCC5COC(Cn6cncn6)(c6ccc(Cl)cc6Cl)O5)cc4)CC3)cc2)c1=O (stereo unspecified) [ITRACONAZOLE] | > 30 µM |  |  |  |  |  | 
22 |  | > 10 µM | > 10 µM | > 10 µM | 11 µM | 7.01 µM | CN(C)CCC(c1ccc(Cl)cc1)c1ccccn1 (stereo unspecified) [CHLORPHENIRAMINE] |  |  |  |  |  |  | 
23 |  | > 10 µM | > 10 µM | > 10 µM | > 10 µM | > 10 µM | Cc1ccc(-c2cc(C(F)(F)F)nn2-c2ccc(S(N)(=O)=O)cc2)cc1 [CELECOXIB] |  |  |  |  |  |  | 
